Laboratory results reported in patent US6423541B1, “Process for in vitro selection of high methol producing genotypes” (Council of Scientific&Industrial Reaearch, priority 2000, dated 2002).

Experiments:
[1] = system: callus mediated regenerants of Mentha arvensis cv. Himalaya; experiment: Survival of callus mediated regenerants from internodal explants at different concentrations of menthol; format: cell-based; conditions: for Survival after 24 hours Number / Survival after 7 days Number: 20 shoots tested per replication
Description: The Applicants selected the improved plant variety cv. Himalaya (U.S. Pat. PP 10,935: Kumar et al 1999) of Mentha arvensis L. as the base material for further improvement and selection. This variety is a hybrid between variety Gomti and Kalka and bears the high proliferating habit of Gomti and high menthol content, disease tolerant characters of Kalka. The explant material was collected from the field grown plants and surface sterilized by washing sequentially with 2% detergent, distilled water containing a few drops of Savlon (Johnson and Johnson, India), 0.1% acidified mercurie chloride and autoclaved distilled water before inoculation. About 1 cm long internode pieces were inoculated in the MS medium (Murashige and Skoog 1962) containing 0.2 μg ml^−1 concentrations of the auxin 2,4 dichlorophenoxyacetic acid (2,4-D) and 7 μg ml^−1 of the cytokinin 6-(γγ′- dimethylallyl amino) purine (2iP or 2aP) (Khanuja et al. 1998). This procedure has been highly efficient in generating variation in cultures of mints with greater frequencies. The cultures were grown at 25±2° C. and 400 to 600 lux light intensity with 16-h photoperiod. The regenerated shoots were separated 12 weeks latter the explant inoculation for rooting and/or screening.
The regenerated shoots (3-4 cm long, containing the apical bud and 2-3 nodes) separated from the 2,4D/2iP medium, were inoculated into MS basal medium containing vitamins, 100 mg l^−1 myo-inositol, 3% wv^−1 sucrose, 1.5% wv^−1 agar (Difco), with or without menthol (0 to 100 μg ml^−1, concentration stepped up by 10 μg serially in each treatment). On each kind of these media, 5 independent regenerated shoots were inoculated per flask; 4 flasks were inoculated per replication and each treatment was replicated 5 times, making the number of flasks to 20 and number of explants to 100 for each concentration of menthol. Like the earlier experiment this experiment was also conducted in the completely randomised design (CRD) fashion. Cultures were incubated and maintained at 25±2° C. and 400-600 lux light intensity with 16 hour photoperiod. The nature of initial responses in explants was recorded every 24 hours over a period of one week.

[2] = system: regenerated shoots of Mentha arvensis varieties; experiment: whole plant or invertebrate; format: cell-based; conditions: 168 h, read-out: mortality of shoots
Description: The plant varieties analysed were Himalaya, Shivalik, Gomti, MAS-1, Kosi, Kalka of Mentha arvensis L. (2n=96). The suckers of these plant varieties were obtained from CIMAP's national gene bank for medicinal and aromatic plants for planting. The explant materials were collected from the field grown plants and surface sterilized by washing sequentially with 2% detergent, distilled water containing a few drops of Savlon (Johnson and Johnson, India), 0.1% acidified mercuric chloride and autoclaved distilled water before inoculation. About 1 cm long internodal pieces were inoculated in the MS medium (Murasighe and Skoog, 1962) containing vitamins, 100 mg l^−1 myo-inositol 3% wv^−1 sucrose, 1.5% wv^−1 agar (Difco), 0.5 .μg ml^−1 of an auxin, (NAA, 1-napthalene acetic acid) and 5 μg ml^−1 of a cytokinin (BAP, benzyl aminopurine) (Shasany et al, 1998). The cultures were grown at 25±2° C. and 400 to 600 lux light intensity with 16 h photoperiod. The regenerated shoots were separated 12 weeks after the explant inoculation for rooting and/or testing menthol tolerance.
The regenerated shoots (3-4 cm long, containing the apical bud and 2-3 nodes) separated after 12 weeks, were inoculated into MS basal medium with or without menthol (0 to 100 μg ml^−1). […] The wilting response and lethality in explants was recorded every 24 hours over a period of one week.

Compound: CC1CCC(C(C)C)C(O)C1 (centres unmarked) [menthol]
- shoot survival ([1]; at and above 80 μg ml^−1 menthol, after 7th day): No shoots were able to survive
- Survival after 24 hours % ([1]; menthol 10 μg ml^−1): 100%
- Survival after 7 days % ([1]; menthol 10 μg ml^−1): 100%
- Survival after 24 hours Number ([1]; menthol 10 μg ml^−1): 20.0 ± 0.00
- Survival after 7 days Number ([1]; menthol 10 μg ml^−1): 20.0 ± 0.00
- Survival after 24 hours % ([1]; menthol 20 μg ml^−1): 100%
- Survival after 7 days % ([1]; menthol 20 μg ml^−1): 100%
- Survival after 24 hours Number ([1]; menthol 20 μg ml^−1): 20.0 ± 0.00
- Survival after 7 days Number ([1]; menthol 20 μg ml^−1): 20.0 ± 0.00
- Survival after 24 hours % ([1]; menthol 30 μg ml^−1): 100%
- Survival after 7 days % ([1]; menthol 30 μg ml^−1): 100%
- Survival after 24 hours Number ([1]; menthol 30 μg ml^−1): 20.0 ± 0.00
- Survival after 7 days Number ([1]; menthol 30 μg ml^−1): 20.0 ± 0.00
- Survival after 24 hours % ([1]; menthol 40 μg ml^−1): 100%
- Survival after 7 days % ([1]; menthol 40 μg ml^−1): 88%
- Survival after 24 hours Number ([1]; menthol 40 μg ml^−1): 20.0 ± 0.00
- Survival after 7 days Number ([1]; menthol 40 μg ml^−1): 17.6 ± 0.66
- Survival after 24 hours % ([1]; menthol 50 μg ml^−1): 85%
- Survival after 7 days % ([1]; menthol 50 μg ml^−1): 45%
- Survival after 24 hours Number ([1]; menthol 50 μg ml^−1): 17.0 ± 0.91
- Survival after 7 days Number ([1]; menthol 50 μg ml^−1): 9.0 ± 0.41
- Survival after 24 hours % ([1]; menthol 60 μg ml^−1): 70%
- Survival after 7 days % ([1]; menthol 60 μg ml^−1): 10%
- Survival after 24 hours Number ([1]; menthol 60 μg ml^−1): 14.0 ± 0.58
- Survival after 7 days Number ([1]; menthol 60 μg ml^−1): 2.0 ± 0.41
- Survival after 24 hours % ([1]; menthol 70 μg ml^−1): 45%
- Survival after 7 days % ([1]; menthol 70 μg ml^−1): 1%
- Survival after 24 hours Number ([1]; menthol 70 μg ml^−1): 9.0 ± 0.91
- Survival after 7 days Number ([1]; menthol 70 μg ml^−1): 0.2 ± 0.26
- shoot survival ([1]; menthol 70 μg ml^−1, within 24 hours of inoculation): about 45%
- death of shoots ([1]; menthol 70 μg ml^−1, within 7 days after inoculation): ~99%
- Survival after 24 hours % ([1]; menthol 80 μg ml^−1): 20%
- Survival after 7 days % ([1]; menthol 80 μg ml^−1): 0%
- Survival after 24 hours Number ([1]; menthol 80 μg ml^−1): 4.0 ± 0.58
- Survival after 7 days Number ([1]; menthol 80 μg ml^−1): 0.0 ± 0.00
- Survival after 24 hours % ([1]; menthol 90 μg ml^−1): 10%
- Survival after 7 days % ([1]; menthol 90 μg ml^−1): 0%
- Survival after 24 hours Number ([1]; menthol 90 μg ml^−1): 2.0 ± 0.40
- Survival after 7 days Number ([1]; menthol 90 μg ml^−1): 0.0 ± 0.00
- Survival after 24 hours % ([1]; menthol 100 μg ml^−1): 0%
- Survival after 7 days % ([1]; menthol 100 μg ml^−1): 0%
- Survival after 24 hours Number ([1]; menthol 100 μg ml^−1): 0.0 ± 0.00
- Survival after 7 days Number ([1]; menthol 100 μg ml^−1): 0.0 ± 0.00
- mortality at 80 ppm [2]: 100%
